The source of these data is US10946017B2, “Tank-binding kinase-1 PROTACs and associated methods of use” (Arvinas Operations, Inc., priority 2015, dated 2021).

Structures are written as SMILES.

The target of test [1] is T1, TBK1 (Homo sapiens (Human), UniProt Q9UHD2). Put plainly: In vitro TBK1 degradation assay, Panc02.13 cells (compounds 3-33), immunoblot. Type of test: cell-based. The following applies: TBK1 degradation, Panc02.13 cells, 16 h, mean of ≥ 2 determinations; for DC50: read-out: DC50 (concentration at which 50% degradation is observed). How it is done:
In vitro degradation assay protocol for compounds 3-33: Panc02.13 cells were purchased from ATCC and cultured in RPMI-1640 (Gibco), supplemented with 15% FBS (ATCC) and 10 Units/mL human recombinant insulin (Gibco). PROTAC treatments were carried out in 12-well plates for 16 h. TLR3 agonist Poly I:C (Invivogen; tlr1-pic) was added for the final 3 h. Cells were harvested, and lysed in RIPA buffer (50 mM Tris pH8, 150 mM NaCl, 1% Tx-100, 0.1% SDS, 0.5% Sodium Deoxycholate) supplemented with protease and phosphatase inhibitors. Lysates were clarified at 16,000 g for 10 minutes, and supernatants were separated by SDS-PAGE. Immunoblotting was performed using standard protocols. The antibodies used were TBK1 (Cell Signaling#3504), pIRF3 (abcam#ab76493), and GAPDH (Cell Signaling#5174).

Test [2] deals with T1, TBK1. Put plainly: In vitro TBK1 degradation assay, MDA MB 231 cells (compounds 34-57), immunoblot. Type of test: cell-based. The following applies: 1 uM compound, 16 h, read-out: % TBK1 remaining at 1 uM Cmpd. How it is done: MDA MB 231 cells were purchased from ATCC and cultured in RPMI-1640 (Gibco), supplemented with 10% FBS (Gibco). PROTAC treatments were carried out in 24-well plates for 16 h. Cells were harvested, and lysed in RIPA buffer (50 mM Tris pH8, 150 mM NaCl, 1% Tx-100, 0.1% SDS, 0.5% Sodium Deoxycholate) supplemented with protease and phosphatase inhibitors. Lysates were clarified at 16,000 g for 10 minutes, and supernatants were separated by SDS-PAGE. Immunoblotting was performed using standard protocols. The antibodies used were TBK1 (Cell Signaling#3504) and GAPDH (Cell Signaling#5174).

T1 sequence (Q9UHD2 whole entry): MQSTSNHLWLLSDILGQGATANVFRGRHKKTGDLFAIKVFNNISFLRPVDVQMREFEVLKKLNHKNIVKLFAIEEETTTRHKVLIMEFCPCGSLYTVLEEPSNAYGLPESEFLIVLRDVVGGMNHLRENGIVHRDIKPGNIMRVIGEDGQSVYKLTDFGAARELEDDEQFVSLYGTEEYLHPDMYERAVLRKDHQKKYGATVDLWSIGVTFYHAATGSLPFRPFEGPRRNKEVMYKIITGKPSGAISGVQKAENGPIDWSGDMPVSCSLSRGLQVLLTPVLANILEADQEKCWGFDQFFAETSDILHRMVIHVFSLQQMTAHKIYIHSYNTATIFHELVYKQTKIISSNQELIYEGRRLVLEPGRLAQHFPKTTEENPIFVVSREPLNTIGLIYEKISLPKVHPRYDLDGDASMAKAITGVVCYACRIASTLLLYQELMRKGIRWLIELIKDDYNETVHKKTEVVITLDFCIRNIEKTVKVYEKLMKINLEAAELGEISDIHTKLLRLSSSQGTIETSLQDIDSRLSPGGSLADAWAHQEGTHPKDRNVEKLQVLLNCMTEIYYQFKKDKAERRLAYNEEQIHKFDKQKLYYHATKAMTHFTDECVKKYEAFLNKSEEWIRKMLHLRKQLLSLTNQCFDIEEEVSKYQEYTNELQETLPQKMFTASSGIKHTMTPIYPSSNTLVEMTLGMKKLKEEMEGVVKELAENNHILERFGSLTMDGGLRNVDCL

In the case of `Cc1ncsc1-c1ccc(CNC(=O)[C@@H]2C[C@@H](O)CN2C(=O)[C@@H](NC(=O)COCCOCCOCCOCCOCCOCCOc2ccc(Nc3ncc(Br)c(NCCCN(C)C(=O)C4CCC4)n3)cc2)C(C)(C)C)cc1` [Compound 16], on TBK1 [1], the “Dmax (maximal degradation observed)” value is recorded as 96% and the DC50 was determined as 34 nM.
`Cc1cnc(Nc2cccc(OCCCOCCCCOCCCOCC(=O)N[C@H](C(=O)N3C[C@H](O)C[C@H]3C(=O)NCc3ccc(-c4scnc4C)cc3)C(C)(C)C)c2)nc1NCCCN(C)C(=O)C1CCC1` [Compound 50]: on TBK1 [2], the remaining activity at 1 µM was at least 81%.
Regarding `Cc1ncsc1-c1ccc(CNC(=O)[C@@H]2C[C@@H](O)CN2C(=O)[C@@H](NC(=O)COCCOCCCCOCCCCOCCOc2ccc(Nc3ncc(Br)c(NCCCN(C)C(=O)C4CCC4)n3)cc2)C(C)(C)C)cc1` [Compound 14], on TBK1 [1], the “Dmax (maximal degradation observed)” value is on record as 96% and the DC50 worked out at 6 nM.
Regarding `Cc1ncsc1-c1ccc(CNC(=O)[C@@H]2C[C@@H](O)CN2C(=O)[C@@H](NC(=O)COCCCOCCCCOCCCOc2cccc(Nc3ncc(C4CC4)c(NCCCN(C)C(=O)C4CCC4)n3)c2)C(C)(C)C)cc1` [Compound 51], the remaining activity at 1 µM on TBK1 [2] was at least 81%.
As to `Cc1ncsc1-c1ccc(CNC(=O)[C@@H]2C[C@@H](O)CN2C(=O)[C@H](C(C)C)N2Cc3ccccc3C2=O)c(OCCCOCCCOc2ccc(Nc3ncc(Br)c(NCCCN(C)C(=O)C4CCC4)n3)cc2)c1` [Compound 41], the remaining activity at 1 µM at TBK1 [2] was at least 81%.
Same read-out and setting: in the case of `Cc1ncsc1-c1ccc(CNC(=O)[C@@H]2C[C@@H](O)CN2C(=O)[C@H](C(C)C)N2Cc3ccccc3C2=O)c(OCCCOCCCCOCCCOc2ccc(Nc3ncc(Br)c(NCCCN(C)C(=O)C4CCC4)n3)cc2)c1` [Compound 44] it was 41 to 80%.
For the compound `Cc1ncsc1-c1ccc(CNC(=O)[C@@H]2C[C@@H](O)CN2C(=O)[C@@H](NC(=O)COCCOCCOCCOc2ccc(Nc3ncc(Br)c(NCCCN(C)C(=O)C4CCC4)n3)cc2)C(C)(C)C)cc1` [Compound 7], the DC50 on TBK1 [1] is over 1000 nM.
For `Cc1ncsc1-c1ccc(CNC(=O)[C@@H]2C[C@@H](O)CN2C(=O)[C@@H](NC(=O)COCCOCCOCCOCCOCCOc2ccc(Nc3ncc(Br)c(NCCCN(C)C(=O)C4CCC4)n3)cc2)C(C)(C)C)cc1` [Compound 13], at TBK1 [1], the “Dmax (maximal degradation observed)” value is recorded as 96% and the DC50 was 29 nM.
For the compound `CCc1cnc(Nc2cccc(OCCCOCCCCOCCCOCC(=O)N[C@H](C(=O)N3C[C@H](O)C[C@H]3C(=O)NCc3ccc(-c4scnc4C)cc3)C(C)(C)C)c2)nc1NCCCN(C)C(=O)C1CCC1` [Compound 52], the remaining activity at 1 µM at TBK1 [2] is at least 81%.
Same read-out and setting: in the case of `Cc1ncsc1-c1ccc(CNC(=O)[C@@H]2C[C@@H](O)CN2C(=O)[C@H](C(C)C)N2Cc3ccccc3C2=O)c(OCCCOCCCOCCOc2ccc(Nc3ncc(Br)c(NCCCN(C)C(=O)C4CCC4)n3)cc2)c1` [Compound 46] it was 41 to 80%; in that of `Cc1ncsc1-c1ccc(CNC(=O)[C@@H]2C[C@@H](O)CN2C(=O)[C@H](C(C)C)N2Cc3ccccc3C2=O)c(OCCCCOCCCCOc2ccc(Nc3ncc(Br)c(NCCCN(C)C(=O)C4CCC4)n3)cc2)c1` [Compound 40], at least 81%.
On to `Cc1ncsc1-c1ccc(CNC(=O)[C@@H]2C[C@@H](O)CN2C(=O)[C@@H](NC(=O)COCCOCCOCCCCOc2ccc(Nc3ncc(Br)c(NCCCN(C)C(=O)C4CCC4)n3)cc2)C(C)(C)C)cc1` [Compound 9], for which, on TBK1 [1], the “Dmax (maximal degradation observed)” value amounted to 86% and the DC50 worked out at 71 nM.
For `C=Cc1cnc(Nc2cccc(OCCCOCCCCOCCCOCC(=O)N[C@H](C(=O)N3C[C@H](O)C[C@H]3C(=O)NCc3ccc(-c4scnc4C)cc3)C(C)(C)C)c2)nc1NCCCN(C)C(=O)C1CCC1` [Compound 54], the remaining activity at 1 µM on TBK1 [2] fell in the range of 41 to 80%.
In the case of `Cc1ncsc1-c1ccc(CNC(=O)[C@@H]2C[C@@H](O)CN2C(=O)[C@@H](NC(=O)CCOCCCOCCCOCCCOCCCOc2ccc(Nc3ncc(Br)c(NCCCN(C)C(=O)C4CCC4)n3)cc2)C(C)(C)C)cc1` [Compound 15], at TBK1 [1], the “Dmax (maximal degradation observed)” value came to 96% and the DC50 stood at 25 nM.
Regarding `Cc1ncsc1-c1ccc(CNC(=O)[C@@H]2C[C@@H](O)CN2C(=O)[C@H](C(C)C)N2Cc3ccccc3C2=O)c(OCCOCCOCCOc2ccc(Nc3ncc(Br)c(NCCCN(C)C(=O)C4CCC4)n3)cc2)c1` [Compound 35], the remaining activity at 1 µM on TBK1 [2] is at least 81%.
Still for that read-out and setting: in the case of `Cc1ncsc1-c1ccc(CNC(=O)[C@@H]2C[C@@H](O)CN2C(=O)[C@H](C(C)C)N2Cc3ccccc3C2=O)c(OCCCCOc2ccc(Nc3ncc(Br)c(NCCCN(C)C(=O)C4CCC4)n3)cc2)c1` [Compound 39] it was at least 81%.
For the compound `Cc1ncsc1-c1ccc(CNC(=O)[C@@H]2C[C@@H](O)CN2C(=O)[C@@H](NC(=O)CCCCCOCCCCOCCCCOc2ccc(Nc3ncc(Br)c(NCCCN(C)C(=O)C4CCC4)n3)cc2)C(C)(C)C)cc1` [Compound 12], on TBK1 [1], the “Dmax (maximal degradation observed)” value was 90% and the DC50 came out at 95 nM.
Regarding `Cc1ncsc1-c1ccc(CNC(=O)[C@@H]2C[C@@H](O)CN2C(=O)[C@H](C(C)C)N2Cc3ccccc3C2=O)c(OCCCOCCCOCCOCCCOCCCOc2ccc(Nc3ncc(Br)c(NCCCN(C)C(=O)C4CCC4)n3)cc2)c1` [Compound 48], at TBK1 [2], the remaining activity at 1 µM fell in the range of 0 to 40%.
For the compound `Cc1ncsc1-c1ccc(CNC(=O)[C@@H]2C[C@@H](O)CN2C(=O)[C@H](C(C)C)N2Cc3ccccc3C2=O)c(OCCOCCOc2ccc(Nc3ncc(Br)c(NCCCN(C)C(=O)C4CCC4)n3)cc2)c1` [Compound 34], at TBK1 [2], the remaining activity at 1 µM lay within 41 to 80%.
The same measure, in the same setting: in the case of `Cc1ncsc1-c1ccc(CNC(=O)[C@@H]2C[C@@H](O)CN2C(=O)[C@H](C(C)C)N2Cc3ccccc3C2=O)c(OCCOCCOCCOCCOc2ccc(Nc3ncc(Br)c(NCCCN(C)C(=O)C4CCC4)n3)cc2)c1` [Compound 36] it was at least 81%.
Same read-out and setting: in the case of `Cc1ncsc1-c1ccc(CNC(=O)[C@@H]2C[C@@H](O)CN2C(=O)[C@H](C(C)C)N2Cc3ccccc3C2=O)c(OCCOCCOCCOCCOCCOc2ccc(Nc3ncc(Br)c(NCCCN(C)C(=O)C4CCC4)n3)cc2)c1` [Compound 38] it was at least 81%.
Regarding `Cc1ncsc1-c1ccc(CNC(=O)[C@@H]2C[C@@H](O)CN2C(=O)[C@@H](NC(=O)COCCOCCCCOCCCCOCCOCCOc2ccc(Nc3ncc(Br)c(NCCCN(C)C(=O)C4CCC4)n3)cc2)C(C)(C)C)cc1` [Compound 17], on TBK1 [1], the “Dmax (maximal degradation observed)” value came out at 96% and the DC50 stood at 3 nM.
For `Cc1ncsc1-c1ccc(CNC(=O)[C@@H]2C[C@@H](O)CN2C(=O)[C@@H](NC(=O)CCCCCOCCOc2ccc(Nc3ncc(Br)c(NCCCN(C)C(=O)C4CCC4)n3)cc2)C(C)(C)C)cc1` [Compound 5], the DC50 on TBK1 [1] was over 1000 nM.
Still for that read-out and setting: in the case of `Cc1ncsc1-c1ccc(CNC(=O)[C@@H]2C[C@@H](O)CN2C(=O)[C@@H](NC(=O)COCCCOCCCOc2ccc(Nc3ncc(Br)c(NCCCN(C)C(=O)C4CCC4)n3)cc2)C(C)(C)C)cc1` [Compound 6] it was over 1000 nM.
On to `Cc1ncsc1-c1ccc(CNC(=O)[C@@H]2C[C@@H](O)CN2C(=O)[C@@H](NC(=O)COCCOCCOCCOCCOc2ccc(Nc3ncc(Br)c(NCCCN(C)C(=O)C4CCC4)n3)cc2)C(C)(C)C)cc1` [Compound 10], for which, at TBK1 [1], the “Dmax (maximal degradation observed)” value was found to be 92% and the DC50 is 103 nM.
The matching figures for `Cc1ncsc1-c1ccc(CNC(=O)[C@@H]2C[C@@H](O)CN2C(=O)[C@@H](NC(=O)COCCCOCCCCCOc2ccc(Nc3ncc(Br)c(NCCCN(C)C(=O)C4CCC4)n3)cc2)C(C)(C)C)cc1` [Compound 8]: 79% and 88 nM.
